Data published in patent publication US12589099B2 (priority 2021, dated 2026).

Legend:
[1] = system: 5 microorganisms (3 bacteria and 2 fungi); experiment: USP 51 Preservative Challenge Test, overall assessment by USP Criteria for Category 2; type: cell-based; settings: 14 and 28 days
Protocol: (§1) In order to assess the anti-microbial properties of ALPHA-1062, the USP (US Pharmacopeia) Chapter 51 Preservative Challenge Test (USP 51) was employed. The USP 51 is a common method used to gauge preservative effectiveness. Much like a Preservative Challenge Screen, it is used to evaluate the effect of preservatives in cosmetics, personal care products, and drug products. Preservatives are typically antimicrobial ingredients that are added to aqueous product formulations to help maintain the safety of the product by inhibiting the growth and reducing the number of microbial contaminants.
In the context of the present invention, ALPHA-1062 (in the form of the gluconate salt) was assessed in place of (as) a preservative. No additional preservative was added to the ALPHA-1062 gluconate preparation, rather an anti-microbial effect of the agent itself (ALPHA-1062) was assessed. ALPHA-1062 is therefore the anti-microbial agent in the assay and experiments described below. […]
The inoculated containers were incubated at 22.5±2.5° C. and each container was sampled at the appropriate intervals, as specified in Table 3. Any changes observed in the appearance of the culture was recorded at these intervals. By using the plate-count procedure, the number of CFU present in each test preparation was determined for the applicable intervals. […]

[2] = system: Staphylococcus aureus (ATCC No. 6538); experiment: USP 51 Preservative Challenge Test; type: cell-based; settings: S. aureus ATCC 6538
Protocol: as §1
(§2) In the context of the present invention, ALPHA-1062 (in the form of the gluconate salt) was assessed in place of (as) a preservative. No additional preservative was added to the ALPHA-1062 gluconate preparation, rather an anti-microbial effect of the agent itself (ALPHA-1062) was assessed. ALPHA-1062 is therefore the anti-microbial agent in the assay and experiments described below.
(§3) The USP 51 challenge test utilizes 5 microorganisms (3 bacteria and 2 fungi) for challenge testing. Each of the microorganisms are known strains of pathogenic microorganisms and they represent a wide range of microbial physiologies.
(§4) Cultures of the following microorganisms were applied, as per standard guidelines for USP 51: Candida albicans (ATCC No. 10231), Aspergillus brasiliensis (ATCC No. 16404), Escherichia coli (ATCC No. 8739), Pseudomonas aeruginosa (ATCC No. 9027), and Staphylococcus aureus (ATCC No. 6538).
(§5) The test was conducted in five sterile, capped bacteriological containers of suitable size into which a sufficient volume of product has been transferred. Each container was inoculated with one of the prepared and standardized inoculums and was mixed accordingly. The volume of the suspension inoculum used was between 0.5% and 1.0% of the volume of the product. The concentration of test microorganisms that was added to the product was such that the final concentration of the test preparation after inoculation was between 1×10^5 and 1×10^6 CFU per mL of the product, according to standard guidelines for Category 2 products.
(§6) The initial concentration of viable microorganisms in each test preparation was estimated based on the concentration of microorganisms in each of the standardized inoculums, as determined by the plate-count method.
(§7) The inoculated containers were incubated at 22.5±2.5° C. and each container was sampled at the appropriate intervals, as specified in Table 3. Any changes observed in the appearance of the culture was recorded at these intervals. By using the plate-count procedure, the number of CFU present in each test preparation was determined for the applicable intervals.
(§8) An inactivator (neutralizer) of the specific antimicrobial was incorporated in the plate count or in the appropriate dilution prepared for plating. These conditions were determined in the validation study for that sample based upon the conditions of media and microbial recovery incubation times listed in Table 2. Using the calculated concentrations of CFU per mL present at the start of the test, the change in log 10 values of the concentration of CFU per mL for each microorganism was calculated at the applicable test intervals, and the changes were expressed in terms of log reductions.
(§9) The USP Criteria for Category 2 were employed in order to determine the presence of an anti-microbial effect. For bacteria, an antimicrobial effect is evident when at least a 2.0 log reduction from the initial count is evident at 14 days and no increase is evident from the 14-day count at 28 days. For yeast and molds, an antimicrobial effect is evident when no increase from the initial calculated count is determined at 14 and 28 days.

[3] = system: Aspergillus brasiliensis (ATCC No. 16404); experiment: USP 51 Preservative Challenge Test; type: cell-based; settings: A. brasiliensis ATCC 16404; initial Log10 5.3
Protocol: as §1, §2, §3, §4, §5, §6, §7, §8, §9

[4] = system: Pseudomonas aeruginosa (ATCC No. 9027); experiment: USP 51 Preservative Challenge Test; type: cell-based; settings: P. aeruginosa ATCC 9027
Protocol: as §1, §2, §3, §4, §5, §6, §7, §8, §9

[5] = system: Candida albicans (ATCC No. 10231); experiment: USP 51 Preservative Challenge Test; type: cell-based; settings: C. albicans ATCC 10231
Protocol: as §1, §2, §3, §4, §5, §6, §7, §8, §9

[6] = system: Escherichia coli (ATCC No. 8739); experiment: USP 51 Preservative Challenge Test; type: cell-based; settings: E. coli ATCC 8739
Protocol: as §1, §2, §3, §4, §5, §6, §7, §8, §9

[7] = 43% RH (RT), up to 5 days; cited from earlier work
[8] = initial 4.0 × 10^5 CFU/mL (Log10 5.6), 22.5±2.5° C., no additional preservative
[9] = initial 2.9 × 10^5 CFU/mL (Log10 5.5), 22.5±2.5° C., no additional preservative
[10] = initial 6.7 × 10^5 CFU/mL (Log10 5.8), 22.5±2.5° C., no additional preservative
[11] = initial 9.1 × 10^5 CFU/mL (Log10 6.0), 22.5±2.5° C., no additional preservative

## COc1ccc2c3c1O[C@H]1C[C@@H](OC(=O)c4ccccc4)C=C[C@@]31CCN(C)C2 [ALPHA-1062 Gluconate]
[1]
  anti-microbial effect against all 5 organisms tested in the USP 51: strong anti-microbial effect
[2]; [8]
  Day 14 CFU/mL: <10 CFU/mL
  Day 28 CFU/mL: <10 CFU/mL
[2]; initial Log10 5.6
  Day 14 Log Reduction: 4.6
  Day 28 Log Reduction: 4.6
[3]
  Day 14 Log Reduction: 3.1
  Day 28 Log Reduction: 3.1
[4]; [9]
  Day 14 CFU/mL: <10 CFU/mL
  Day 28 CFU/mL: <10 CFU/mL
[4]; initial Log10 5.5
  Day 14 Log Reduction: 4.5
  Day 28 Log Reduction: 4.5
[5]; [10]
  Day 14 CFU/mL: <10 CFU/mL
  Day 28 CFU/mL: <10 CFU/mL
[5]; initial Log10 5.8
  Day 14 Log Reduction: 4.8
  Day 28 Log Reduction: 4.8
[6]; [11]
  Day 14 CFU/mL: <10 CFU/mL
  Day 28 CFU/mL: <10 CFU/mL
[6]; initial Log10 6.0
  Day 14 Log Reduction: 5.0
  Day 28 Log Reduction: 5.0

## COc1ccc2c3c1O[C@H]1C[C@@H](OC(=O)c4ccccc4)C=C[C@@]31CCN(C)C2.O=C(O)C(O)C(O)C(O)C(O)CO [Form A]
[7]
  solid state stability of the crystalline form: kinetically stable
